Non-standard residues stand in square brackets, D forms with d. Residues, ends and D or L forms follow the SMILES beside them. *: point of attachment. Hydrocinnamoyl = O=C(CCc1ccccc1)*; pS = N[C@@H](COP(=O)(O)O)C(=O)O; X2 = COc1ccc(CC(=O)*)cc1OC
Biological target: BRCT-BRCA1 (Homo sapiens, UniProt P38398)
Test: Fluorescence polarization
Format: binding

Sequence of BRCT-BRCA1 (P38398 1646-1859 limits assumed): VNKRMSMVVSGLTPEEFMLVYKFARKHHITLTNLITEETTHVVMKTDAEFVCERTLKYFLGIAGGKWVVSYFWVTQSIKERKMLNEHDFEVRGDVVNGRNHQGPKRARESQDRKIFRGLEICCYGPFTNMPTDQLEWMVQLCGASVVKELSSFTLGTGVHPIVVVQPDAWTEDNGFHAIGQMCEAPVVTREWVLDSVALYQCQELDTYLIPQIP

| fold loss of activity compared to 9 (compared to mimic 9) | Compound | fold higher activity than parent peptide 4 (compared to parent peptide 4) |
| --- | --- | --- |
| ~ 150 fold | COc1ccc(CC(=O)N[C@@H](COP(=O)(O)O)C(=O)N2CCC[C@H]2C(=O)N[C@H](C(=O)N[C@@H](Cc2ccccc2)C(=O)O)C(C)C)cc1OC [compound 13] (X2-[pS]PVF-OH; N-terminus assumed) |  |
|  | CC(C)[C@H](NC(=O)[C@@H]1CCCN1C(=O)[C@H](COP(=O)(O)O)NC(=O)CCc1ccccc1)C(=O)N[C@@H](Cc1ccccc1)C(=O)O [compound 10] (Hydrocinnamoyl-[pS]PVF-OH; N-terminus assumed) | ~ 3 fold |

Reference: paper PMC3201719 (ACS medicinal chemistry letters, 2011)
